Assay results as given in patent US7601333B2, “Use of a tetrapeptide AcSDKP (SEQ ID No. 1) analog resistant to the angiotensin I converting enzyme for measuring glomerular filtration rate in a human or an animal and kit containing same” (Assistance Publique-Hopitaux de Paris, priority 2003, dated 2009).
Several values for one entry are separate records, joined by “and”; a condition that tells them apart may be missing. Equal values may be shown once. Read-outs that look alike come from different tables or passages of the source. Residues, ends and D or L forms follow the SMILES beside them.

Assays:
[1] = Plasma and urine pharmacokinetics after I.V. bolus in rats; conditions: for % excreted: urine; for Renal clearance: summarizing table, i.v. bolus
human ACE [2] = molecular target: human ACE (Homo sapiens, UniProt P12821); experiment: In vitro degradation in the presence of human ACE; format: in vitro ADME
Procedure: (§1) The peptides (100 nM) were incubated with ground rat lung material (at 0.1 mg/ml) or human converting enzyme (5 mU final concentration) in the presence or absence of captopril (10 μM final concentration) in 0.1 M Tris/HCl buffer+0.3 mM NaCl, pH=7.5. A control comprising only the peptides in the presence of 0.1 M Tris/HCl buffer+0.3 mM NaCl, pH=7.5, was carried out.
(§2) A methanol extraction was carried out in order to stop the reaction. At each time, the concentration of the nondegraded peptide was measured by enzyme immunoassay.
(§3) The results were expressed as percentage of peptide assayed relative to the control for each sample time.

human ACE [3] = experiment: In vitro degradation in the presence of human ACE; format: in vitro ADME; conditions: human converting enzyme (human ACE), peptide 100 nM, human converting enzyme 5 mU, pH 7.5, read-out: percentage of peptide assayed relative to the control; for remaining at 10 min, 100 nM: T10 min; for remaining at 1 h, 100 nM: T60 min; for remaining at 2 h, 100 nM: T120 min; for remaining at 4 h, 100 nM: T240 min; for remaining at 24 h, 100 nM: T1440 min
Procedure: as §1, §2, §3

in vivo = conditions: male, Wistar, rat, plasma, iv
[4] = Group 3, i.v. bolus, without captopril, 24-48 h, single rats
[5] = Group 3, i.v. bolus, without captopril, mean
[6] = Group 3, i.v. bolus, without captopril, single rats
[7] = Group 4, i.v. bolus, with captopril, 4-24 h, single rats
[8] = Group 4, i.v. bolus, with captopril, 48-72 h, single rats
[9] = Group 4, i.v. bolus, with captopril, mean
[10] = Group 4, i.v. bolus, with captopril, single rats
[11] = with captopril 10 μM, + captopril 10 μM

Sequence of human ACE (Homo sapiens, UniProt P12821) (P12821 30-1306): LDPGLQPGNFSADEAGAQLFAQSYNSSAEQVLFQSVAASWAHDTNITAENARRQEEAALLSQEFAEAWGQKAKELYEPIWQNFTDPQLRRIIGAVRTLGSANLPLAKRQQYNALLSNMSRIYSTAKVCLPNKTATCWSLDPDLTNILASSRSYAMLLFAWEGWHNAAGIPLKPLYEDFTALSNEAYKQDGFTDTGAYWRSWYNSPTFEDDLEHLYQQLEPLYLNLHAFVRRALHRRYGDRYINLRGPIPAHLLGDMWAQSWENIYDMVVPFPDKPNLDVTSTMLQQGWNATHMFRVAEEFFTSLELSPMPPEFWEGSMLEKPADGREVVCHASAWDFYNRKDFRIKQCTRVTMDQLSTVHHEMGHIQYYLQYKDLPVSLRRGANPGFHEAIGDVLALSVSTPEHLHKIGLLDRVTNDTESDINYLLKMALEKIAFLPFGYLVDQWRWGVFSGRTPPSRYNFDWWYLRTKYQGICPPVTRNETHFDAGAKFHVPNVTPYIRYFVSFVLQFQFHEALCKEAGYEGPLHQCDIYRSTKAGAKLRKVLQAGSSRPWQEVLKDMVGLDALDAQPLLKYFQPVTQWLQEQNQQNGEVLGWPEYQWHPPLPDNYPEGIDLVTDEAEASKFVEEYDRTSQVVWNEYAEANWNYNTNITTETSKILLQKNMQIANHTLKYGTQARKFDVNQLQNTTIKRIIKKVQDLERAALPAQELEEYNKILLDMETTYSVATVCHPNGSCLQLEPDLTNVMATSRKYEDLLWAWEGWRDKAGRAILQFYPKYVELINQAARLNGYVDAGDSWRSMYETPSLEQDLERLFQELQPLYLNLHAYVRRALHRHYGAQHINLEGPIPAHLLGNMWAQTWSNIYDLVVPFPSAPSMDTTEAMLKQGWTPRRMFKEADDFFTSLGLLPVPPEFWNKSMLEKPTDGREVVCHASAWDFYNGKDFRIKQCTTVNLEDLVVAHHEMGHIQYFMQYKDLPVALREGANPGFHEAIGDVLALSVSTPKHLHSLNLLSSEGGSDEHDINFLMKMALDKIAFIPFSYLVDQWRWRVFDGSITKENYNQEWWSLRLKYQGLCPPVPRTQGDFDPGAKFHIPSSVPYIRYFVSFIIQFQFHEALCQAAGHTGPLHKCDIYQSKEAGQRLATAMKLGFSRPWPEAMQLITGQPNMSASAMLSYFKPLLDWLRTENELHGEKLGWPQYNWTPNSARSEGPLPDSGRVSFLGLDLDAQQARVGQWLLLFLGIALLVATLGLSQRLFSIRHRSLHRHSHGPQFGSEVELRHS

Q in urine ([1]; Group 3, i.v. bolus, without captopril, 0-2 h, single rats): 175685.1 ng and 0.0 ng (5×) | Concentration in urine [1, 4]: ILQ | Concentration in plasma ([1]; Group 3, i.v. bolus, without captopril, 300 min, single rats): ILQ | CLR [1, 5]: 7.59 mL/min/kg | Ctotal dose/AUC [1, 5]: 8.08 mL/min/kg | % excreted [1, 5]: 92.67% | % excreted [1, 6]: 120.7% | Concentration in urine [1, 7]: 11032 ng/mL | Concentration in urine [1, 8]: ILQ and 11 ng/ml | Concentration in plasma ([1]; Group 4, i.v. bolus, with captopril, 15 min, mean): 1874 ng/mL | Concentration in plasma ([1]; Group 4, i.v. bolus, with captopril, 30 min, mean): 1213 ng/mL | Concentration in plasma ([1]; Group 4, i.v. bolus, with captopril, 60 min, mean): 453 ng/mL | Concentration in plasma ([1]; Group 4, i.v. bolus, with captopril, 120 min, mean): 74 ng/mL | Concentration in plasma ([1]; Group 4, i.v. bolus, with captopril, 180 min, mean): 15 ng/mL | Concentration in plasma ([1]; Group 4, i.v. bolus, with captopril, 240 min, single rats): 2 ng/ml (2×) and 3 ng/ml (3×) | Concentration in plasma ([1]; Group 4, i.v. bolus, with captopril, 300 min, mean): 0 ng/mL | Concentration in plasma ([1]; Group 4, i.v. bolus, with captopril, 300 min, single rats): ILQ (4×) and 0 ng/ml | AUC0-INF [1, 9]: 110097 ng·min/mL | CLR [1, 9]: 8.03 mL/min/kg | Ctotal dose/AUC [1, 9]: 8.06 mL/min/kg | Vd [1, 9]: 0.269 L/kg | t½ [1, 10]: 21.9 min and 23.0 min and 24.1 min | % excreted [1, 9]: 98.76% | GFR measured after administration, difference between the groups of rats ([1]; rats): does not differ significantly | degradation in vivo by ACE or other enzyme systems ([1]; rats): not degraded in vivo | mean AUC of group without captopril less than group with captopril ([1]; rats, mean injected dose 11% higher with captopril): approximately 10% | Renal clearance ([1]; rats, with captopril): 8.0 mL/min/kg | Renal clearance ([1]; rats, without captopril): 7.6 mL/min/kg | degradation by ACE of human origin (human ACE [2]; in vitro): does not appear to be degraded | concentrations found (human ACE [2]; in vitro, relative to control): 100±25% | percentage of peptide assayed relative to the control (human ACE [2]; peptide 100 nM, human converting enzyme 5 mU, pH 7.5, T30 min, + captopril 10 μM): 162% | remaining at 10 min, 100 nM (human ACE [3]; [11]): 90% | remaining at 1 h, 100 nM (human ACE [3]; [11]): 78% | remaining at 2 h, 100 nM (human ACE [3]; [11]): 95% | remaining at 4 h, 100 nM (human ACE [3]; [11]): 104% | remaining at 24 h, 100 nM (human ACE [3]; [11]): 117% | remaining at 10 min, 100 nM (human ACE [3]; without captopril): 79% | remaining at 0.5 h, 100 nM (human ACE [3]; T30 min, without captopril): 100% | remaining at 1 h, 100 nM (human ACE [3]; without captopril): 116% | remaining at 2 h, 100 nM (human ACE [3]; without captopril): 116% | remaining at 4 h, 100 nM (human ACE [3]; without captopril): 107% | remaining at 24 h, 100 nM (human ACE [3]; without captopril): 86% | AUC0-inf (in vivo): 1490 ng·h/mL | Vd (in vivo): 0.284 L/kg | clearance (in vivo): 8.1 mL/min/kg | half-life (in vivo): 23.1 min | level at 5 min (in vivo): 3400 ng/mL | level at 10 min (in vivo): 2680 ng/mL | level at 0.25 h (in vivo): 1720 ng/mL | level at 0.5 h (in vivo): 1010 ng/mL | level at 1 h (in vivo): 450 ng/mL | level at 2 h (in vivo): 82 ng/mL | level at 4 h (in vivo): 3 ng/mL | AUC0-inf (in vivo; 0.82 mg/kg): 1230 ng·h/mL | Vd (in vivo; 0.82 mg/kg): 0.338 L/kg | half-life (in vivo; 0.82 mg/kg): 23.3 min | level at 5 min (in vivo; 0.82 mg/kg): 2830 ng/mL | level at 10 min (in vivo; 0.82 mg/kg): 2330 ng/mL | level at 3 h (in vivo; 0.82 mg/kg): 16 ng/mL | level at 4 h (in vivo; 0.82 mg/kg): 3 ng/mL | AUC0-inf (in vivo; 1 mg/kg): 1650 ng·h/mL | Vd (in vivo; 1 mg/kg): 0.266 L/kg | clearance (in vivo; 1 mg/kg): 8.1 mL/min/kg
Compound: CC(=O)N[C@@H](CO)C(=O)N[C@@H](CC(=O)O)C(=O)N[C@@H](CCCCN)C(=O)N1CCC[C@H]1C(N)=O [AcSDKP-NH2, N-acetyl-Ser-Asp-Lys-Pro-NH2] (Ac-SDKP-NH2)
Q in urine ([1]; Group 3, i.v. bolus, without captopril, 2-4 h, single rats): 0.0 ng (3×) and 180325.8 ng and 141210.2 ng and 290581.1 ng | Q in urine ([1]; Group 3, i.v. bolus, without captopril, 4-7 h, single rats): 84030.9 ng and 23548.7 ng and 0.0 ng (4×) | Q in urine ([1]; Group 3, i.v. bolus, without captopril, 7-24 h, single rats): 16014.8 ng and 8570.5 ng and 211497.2 ng and 41898.9 ng and 29223.7 ng and 159391.7 ng | Q in urine [1, 4]: 513.0 ng and 1304.8 ng and 47218.0 ng and 603.6 ng and ILQ and 3161.4 ng | Concentration in plasma ([1]; Group 3, i.v. bolus, without captopril, 5 min, single rats): 2581 ng/mL and 3139 ng/mL and 2865 ng/mL and 2491 ng/mL and 3250 ng/mL and 2663 ng/mL | Concentration in plasma ([1]; Group 3, i.v. bolus, without captopril, 10 min, single rats): 1611 ng/mL and 2288 ng/mL and 2425 ng/mL and 2152 ng/mL and 2918 ng/mL and 2595 ng/mL | Concentration in plasma ([1]; Group 3, i.v. bolus, without captopril, 15 min, single rats): 1655 ng/mL and 985 ng/mL and 2204 ng/mL and 1796 ng/mL and 1930 ng/mL and 1750 ng/mL | Concentration in plasma ([1]; Group 3, i.v. bolus, without captopril, 30 min, single rats): 748 ng/mL and 880 ng/mL and 1317 ng/mL and 1329 ng/mL and 930 ng/mL and 867 ng/mL | Concentration in plasma ([1]; Group 3, i.v. bolus, without captopril, 60 min, single rats): 233 ng/mL and 443 ng/mL and 598 ng/mL and 545 ng/mL and 416 ng/mL and 463 ng/mL | Concentration in plasma ([1]; Group 3, i.v. bolus, without captopril, 120 min, single rats): 47 ng/mL and 45 ng/mL and 163 ng/mL and 118 ng/mL and 48 ng/mL and 69 ng/mL | Concentration in plasma ([1]; Group 3, i.v. bolus, without captopril, 240 min, single rats): ILQ (2×) and 3 ng/ml and 5 ng/ml and 2 ng/ml and 4 ng/ml | AUC0-INF [1, 6]: 87407 ng·min/mL and 125025 ng·min/mL and 111894 ng·min/mL and 101003 ng·min/mL and 96190 ng·min/mL | CLR [1, 6]: 11.8 mL/min/kg and 7.7 mL/min/kg and 6.4 mL/min/kg and 4.9 mL/min/kg and 9.8 mL/min/kg and 5.0 mL/min/kg | Ctotal dose/AUC [1, 6]: 11.3 mL/min/kg and 9 mL/min/kg and 6.2 mL/min/kg and 6.5 mL/min/kg and 8.1 mL/min/kg and 7.2 mL/min/kg | Q in urine total [1, 6]: 276243.9 ng and 213749.7 ng and 258715.2 ng and 183712.7 ng and 319804.8 ng and 162553.1 ng | Vd [1, 6]: 0.27 L/kg and 0.22 L/kg and 0.253 L/kg and 0.256 L/kg and 0.261 L/kg | t½ [1, 6]: 20.7 min (2×) and 24.5 min and 26.8 min and 21.8 min and 25.1 min | Q in urine [1, 7]: 208504.2 ng and 144361.5 ng and 286064.8 ng and 274157.3 ng and 353834.5 ng | Q in urine ([1]; Group 4, i.v. bolus, with captopril, 24-48 h, single rats): 10737.7 ng and 2183.9 ng and 16360.4 ng and 10087.6 ng and 6728.5 ng | Q in urine [1, 8]: 758.4 ng and ILQ and 619.3 ng and 4008.3 ng and 0.0 ng | Concentration in plasma ([1]; Group 4, i.v. bolus, with captopril, 5 min, single rats): 3623 ng/mL and 3115 ng/mL and 4099 ng/mL and 2863 ng/mL and 3280 ng/mL | Concentration in plasma ([1]; Group 4, i.v. bolus, with captopril, 10 min, single rats): 1750 ng/mL and 3571 ng/mL and 3075 ng/mL and 2682 ng/mL and 2346 ng/mL | Concentration in plasma ([1]; Group 4, i.v. bolus, with captopril, 15 min, single rats): 1432 ng/mL and 1978 ng/mL and 2363 ng/mL and 1635 ng/mL and 1960 ng/mL | Concentration in plasma ([1]; Group 4, i.v. bolus, with captopril, 30 min, single rats): 1128 ng/mL and 891 ng/mL and 1173 ng/mL and 889 ng/mL and 1986 ng/mL | Concentration in plasma ([1]; Group 4, i.v. bolus, with captopril, 60 min, single rats): 312 ng/mL and 338 ng/mL and 346 ng/mL and 357 ng/mL and 910 ng/mL | Concentration in plasma ([1]; Group 4, i.v. bolus, with captopril, 120 min, single rats): 31 ng/mL and 63 ng/mL and 64 ng/mL and 73 ng/mL and 140 ng/mL | Concentration in plasma ([1]; Group 4, i.v. bolus, with captopril, 180 min, single rats): 7 ng/mL and 11 ng/mL and 18 ng/mL and 16 ng/mL and 23 ng/mL | AUC0-INF [1, 10]: 100543 ng·min/mL and 114983 ng·min/mL and 92278 ng·min/mL and 153339 ng·min/mL | CLR [1, 10]: 8.2 mL/min/kg and 4.7 mL/min/kg and 9.1 mL/min/kg and 10.6 mL/min/kg and 7.6 mL/min/kg | Ctotal dose/AUC [1, 10]: 9.0 mL/min/kg and 6.9 mL/min/kg and 7.8 mL/min/kg and 9.4 mL/min/kg and 7.2 mL/min/kg | Q in urine total [1, 10]: 220000 ng and 146545.0 ng and 303045 ng and 288253 ng and 360563 ng | Vd [1, 10]: 0.23 L/kg and 0.26 L/kg and 0.327 L/kg and 0.242 L/kg | excretion in the urine ([1]; rats): completely excreted in the urine without being reabsorbed or secreted
